Measurements from ChEMBL document CHEMBL1743201, “Casarett and Doull's Toxicology The Basic Science of Poisons, 7th edition” (2008).

What was measured:
Format in all cases: ADME
Sulfotransferase 1E1 = target: T1, Sulfotransferase 1E1 (Homo sapiens, UniProt P49888); test: Major substrate of human cytosolic sulfotransferase SULT1E1
T1 sequence (P49888 whole entry): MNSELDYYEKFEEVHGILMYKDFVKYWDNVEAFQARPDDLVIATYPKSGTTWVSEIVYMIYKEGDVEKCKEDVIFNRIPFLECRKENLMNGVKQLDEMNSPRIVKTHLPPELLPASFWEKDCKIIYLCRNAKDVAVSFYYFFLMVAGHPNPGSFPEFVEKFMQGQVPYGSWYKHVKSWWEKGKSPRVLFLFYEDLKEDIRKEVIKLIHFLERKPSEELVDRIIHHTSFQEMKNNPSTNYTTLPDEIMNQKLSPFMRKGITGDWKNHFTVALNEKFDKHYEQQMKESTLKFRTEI

[1] = target: T2, UDP-glucuronosyltransferase 1A7 (Homo sapiens, UniProt Q9HAW7); test: Substrate of human UDP-glucuronosyltransferase UGT1A7
T2 sequence (Q9HAW7 whole entry): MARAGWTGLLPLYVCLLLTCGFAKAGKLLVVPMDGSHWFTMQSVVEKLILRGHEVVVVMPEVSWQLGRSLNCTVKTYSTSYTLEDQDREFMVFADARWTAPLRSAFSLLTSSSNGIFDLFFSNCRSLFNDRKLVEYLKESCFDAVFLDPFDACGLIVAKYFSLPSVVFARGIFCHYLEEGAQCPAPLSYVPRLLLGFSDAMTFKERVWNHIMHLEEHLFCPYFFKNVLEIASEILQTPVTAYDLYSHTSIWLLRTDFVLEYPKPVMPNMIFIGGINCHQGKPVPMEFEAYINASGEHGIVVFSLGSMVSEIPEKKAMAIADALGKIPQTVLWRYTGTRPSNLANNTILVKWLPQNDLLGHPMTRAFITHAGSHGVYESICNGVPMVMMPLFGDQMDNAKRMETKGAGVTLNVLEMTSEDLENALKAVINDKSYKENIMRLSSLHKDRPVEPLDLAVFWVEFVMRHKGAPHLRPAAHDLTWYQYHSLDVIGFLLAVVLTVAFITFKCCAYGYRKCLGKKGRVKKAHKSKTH

Cytochrome P450 1A2 [2] = target: T3, Cytochrome P450 1A2 (Homo sapiens, UniProt P05177); test: Clinically relevant inducers of human liver microsomal P450 enzymes, isoform CYP1A2; conditions: microsomes
T3 sequence (P05177 whole entry): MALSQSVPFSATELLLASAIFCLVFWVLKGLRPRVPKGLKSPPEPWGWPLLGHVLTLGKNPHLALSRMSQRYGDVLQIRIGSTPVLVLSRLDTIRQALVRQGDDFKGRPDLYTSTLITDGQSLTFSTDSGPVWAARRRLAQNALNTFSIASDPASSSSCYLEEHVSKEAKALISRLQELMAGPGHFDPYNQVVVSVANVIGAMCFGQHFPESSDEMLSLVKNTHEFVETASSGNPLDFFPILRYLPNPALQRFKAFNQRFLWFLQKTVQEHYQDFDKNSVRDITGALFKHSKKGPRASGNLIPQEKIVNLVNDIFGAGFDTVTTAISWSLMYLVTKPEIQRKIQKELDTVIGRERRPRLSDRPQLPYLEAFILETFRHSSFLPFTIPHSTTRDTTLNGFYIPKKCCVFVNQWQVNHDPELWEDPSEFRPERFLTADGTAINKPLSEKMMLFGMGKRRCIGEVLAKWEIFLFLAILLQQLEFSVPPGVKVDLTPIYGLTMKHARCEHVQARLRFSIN

[3] = target: T4, UDP-glucuronosyltransferase 1A6 (Homo sapiens, UniProt P19224); test: Substrate of human UDP-glucuronosyltransferase UGT1A6
T4 sequence (P19224 whole entry): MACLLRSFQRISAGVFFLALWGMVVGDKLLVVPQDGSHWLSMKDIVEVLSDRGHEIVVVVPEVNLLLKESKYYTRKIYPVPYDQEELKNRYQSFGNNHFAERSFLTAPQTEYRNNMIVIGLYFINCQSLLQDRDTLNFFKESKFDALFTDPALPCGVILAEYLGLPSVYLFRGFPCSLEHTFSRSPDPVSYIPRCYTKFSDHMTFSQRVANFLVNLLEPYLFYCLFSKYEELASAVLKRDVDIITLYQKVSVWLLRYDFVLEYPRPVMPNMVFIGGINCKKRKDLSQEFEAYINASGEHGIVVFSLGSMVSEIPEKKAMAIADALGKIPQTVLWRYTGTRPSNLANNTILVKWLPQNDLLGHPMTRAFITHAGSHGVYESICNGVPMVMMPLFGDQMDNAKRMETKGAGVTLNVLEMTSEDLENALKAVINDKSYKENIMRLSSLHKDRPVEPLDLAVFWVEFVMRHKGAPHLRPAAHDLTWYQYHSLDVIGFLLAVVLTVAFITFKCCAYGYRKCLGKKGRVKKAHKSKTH

[4] = target: T5, UDP-glucuronosyltransferase 2B15 (Homo sapiens, UniProt P54855); test: Substrate of human UDP-glucuronosyltransferase UGT2B15
T5 sequence (P54855 whole entry): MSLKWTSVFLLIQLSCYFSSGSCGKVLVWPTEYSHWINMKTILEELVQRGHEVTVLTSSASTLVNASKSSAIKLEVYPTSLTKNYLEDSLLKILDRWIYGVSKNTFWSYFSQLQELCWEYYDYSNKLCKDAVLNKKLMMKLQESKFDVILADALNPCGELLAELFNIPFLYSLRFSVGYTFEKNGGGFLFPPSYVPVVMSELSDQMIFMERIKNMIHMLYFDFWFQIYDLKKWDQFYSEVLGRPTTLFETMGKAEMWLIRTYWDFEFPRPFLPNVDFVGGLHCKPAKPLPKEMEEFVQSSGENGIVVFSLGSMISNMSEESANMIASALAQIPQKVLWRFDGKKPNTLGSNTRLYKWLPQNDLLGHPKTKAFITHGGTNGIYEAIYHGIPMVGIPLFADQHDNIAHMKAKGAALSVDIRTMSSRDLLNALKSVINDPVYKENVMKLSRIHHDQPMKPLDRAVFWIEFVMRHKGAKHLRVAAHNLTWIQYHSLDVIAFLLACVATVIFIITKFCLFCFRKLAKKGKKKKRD

[5] = target: T6, UDP-glucuronosyltransferase 1A4 (Homo sapiens, UniProt P22310); test: Substrate of human UDP-glucuronosyltransferase UGT1A4
T6 sequence (P22310 whole entry): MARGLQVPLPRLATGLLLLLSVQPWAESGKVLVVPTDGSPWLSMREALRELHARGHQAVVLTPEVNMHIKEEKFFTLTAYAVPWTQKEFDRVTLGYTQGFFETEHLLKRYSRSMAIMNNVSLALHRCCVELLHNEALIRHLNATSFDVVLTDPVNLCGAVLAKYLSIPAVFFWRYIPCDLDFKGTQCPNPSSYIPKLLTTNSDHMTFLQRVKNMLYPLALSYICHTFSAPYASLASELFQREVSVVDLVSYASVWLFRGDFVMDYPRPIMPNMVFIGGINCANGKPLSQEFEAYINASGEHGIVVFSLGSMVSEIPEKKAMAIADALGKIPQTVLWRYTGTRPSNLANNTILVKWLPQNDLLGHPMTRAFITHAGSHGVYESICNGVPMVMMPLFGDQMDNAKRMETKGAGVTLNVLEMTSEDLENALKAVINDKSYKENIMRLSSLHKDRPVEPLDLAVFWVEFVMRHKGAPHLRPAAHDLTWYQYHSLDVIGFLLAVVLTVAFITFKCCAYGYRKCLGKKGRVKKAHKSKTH

[6] = target: T7, UDP-glucuronosyltransferase 2B4 (Homo sapiens, UniProt P06133); test: Substrate of human UDP-glucuronosyltransferase UGT2B4
T7 sequence (P06133 whole entry): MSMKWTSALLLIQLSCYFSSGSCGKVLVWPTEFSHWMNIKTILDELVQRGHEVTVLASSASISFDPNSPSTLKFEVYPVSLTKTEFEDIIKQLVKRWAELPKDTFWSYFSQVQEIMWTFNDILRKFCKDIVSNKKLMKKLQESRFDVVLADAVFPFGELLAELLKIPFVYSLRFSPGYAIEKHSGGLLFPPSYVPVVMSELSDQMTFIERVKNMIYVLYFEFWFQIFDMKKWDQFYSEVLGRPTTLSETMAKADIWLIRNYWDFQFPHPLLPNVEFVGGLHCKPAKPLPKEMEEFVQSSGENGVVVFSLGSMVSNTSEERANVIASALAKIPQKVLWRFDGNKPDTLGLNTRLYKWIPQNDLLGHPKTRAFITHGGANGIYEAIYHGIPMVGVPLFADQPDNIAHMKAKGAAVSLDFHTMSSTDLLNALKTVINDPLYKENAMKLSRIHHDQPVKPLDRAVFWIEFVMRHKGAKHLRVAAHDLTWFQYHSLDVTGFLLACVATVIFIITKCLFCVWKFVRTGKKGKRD

Cytochrome P450 1A2 [7] = target: T3, Cytochrome P450 1A2; test: Clinically relevant inhibitors of human liver microsomal P450 enzymes, isoform CYP1A2; conditions: microsomes
Cytochrome P450 2D6 = Cytochrome P450 2D6 (Homo sapiens, UniProt P10635); test: Clinically relevant inhibitors of human liver microsomal P450 enzymes, isoform CYP2D6; conditions: microsomes
Cytochrome P450 2C19 = Cytochrome P450 2C19 (Homo sapiens, UniProt P33261); test: Clinically relevant substrates of human liver microsomal P450 enzymes, isoform CYP2C19; conditions: microsomes
[8] = target: T8, UDP-glucuronosyltransferase 1A8 (Homo sapiens, UniProt Q9HAW9); test: Substrate of human UDP-glucuronosyltransferase UGT1A8
T8 sequence (Q9HAW9 whole entry): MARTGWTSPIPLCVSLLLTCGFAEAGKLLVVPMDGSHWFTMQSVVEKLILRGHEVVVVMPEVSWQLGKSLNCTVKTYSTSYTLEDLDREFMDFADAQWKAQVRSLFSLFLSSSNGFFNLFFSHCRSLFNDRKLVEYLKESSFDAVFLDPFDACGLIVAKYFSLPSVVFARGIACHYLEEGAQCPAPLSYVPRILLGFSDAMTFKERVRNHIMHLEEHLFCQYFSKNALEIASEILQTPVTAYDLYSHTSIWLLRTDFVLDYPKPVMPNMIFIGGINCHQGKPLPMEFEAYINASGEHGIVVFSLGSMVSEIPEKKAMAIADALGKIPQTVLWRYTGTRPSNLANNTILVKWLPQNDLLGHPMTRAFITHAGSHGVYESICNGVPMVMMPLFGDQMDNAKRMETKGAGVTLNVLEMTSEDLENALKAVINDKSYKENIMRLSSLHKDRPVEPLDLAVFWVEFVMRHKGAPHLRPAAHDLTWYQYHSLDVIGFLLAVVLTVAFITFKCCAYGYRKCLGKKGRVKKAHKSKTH

[9] = target: T9, UDP-glucuronosyltransferase 1A10 (Homo sapiens, UniProt Q9HAW8); test: Substrate of human UDP-glucuronosyltransferase UGT1A10
T9 sequence (Q9HAW8 whole entry): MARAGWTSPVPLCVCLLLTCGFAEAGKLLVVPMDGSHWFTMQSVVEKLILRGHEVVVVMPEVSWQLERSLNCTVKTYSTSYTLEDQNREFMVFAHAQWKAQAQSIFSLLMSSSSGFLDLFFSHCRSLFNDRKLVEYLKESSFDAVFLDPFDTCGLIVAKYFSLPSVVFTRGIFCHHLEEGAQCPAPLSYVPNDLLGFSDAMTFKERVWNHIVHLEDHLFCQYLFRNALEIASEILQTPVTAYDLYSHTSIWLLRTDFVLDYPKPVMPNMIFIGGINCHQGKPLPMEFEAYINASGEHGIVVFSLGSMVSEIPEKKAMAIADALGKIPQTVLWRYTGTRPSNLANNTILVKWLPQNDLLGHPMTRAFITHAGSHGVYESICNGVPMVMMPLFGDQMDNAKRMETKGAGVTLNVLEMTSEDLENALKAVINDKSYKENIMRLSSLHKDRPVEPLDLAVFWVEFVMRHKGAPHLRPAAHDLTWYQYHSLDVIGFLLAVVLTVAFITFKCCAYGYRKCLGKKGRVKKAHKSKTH

Cytochrome P450 2D6, sequence (P10635 whole entry, canonical isoform): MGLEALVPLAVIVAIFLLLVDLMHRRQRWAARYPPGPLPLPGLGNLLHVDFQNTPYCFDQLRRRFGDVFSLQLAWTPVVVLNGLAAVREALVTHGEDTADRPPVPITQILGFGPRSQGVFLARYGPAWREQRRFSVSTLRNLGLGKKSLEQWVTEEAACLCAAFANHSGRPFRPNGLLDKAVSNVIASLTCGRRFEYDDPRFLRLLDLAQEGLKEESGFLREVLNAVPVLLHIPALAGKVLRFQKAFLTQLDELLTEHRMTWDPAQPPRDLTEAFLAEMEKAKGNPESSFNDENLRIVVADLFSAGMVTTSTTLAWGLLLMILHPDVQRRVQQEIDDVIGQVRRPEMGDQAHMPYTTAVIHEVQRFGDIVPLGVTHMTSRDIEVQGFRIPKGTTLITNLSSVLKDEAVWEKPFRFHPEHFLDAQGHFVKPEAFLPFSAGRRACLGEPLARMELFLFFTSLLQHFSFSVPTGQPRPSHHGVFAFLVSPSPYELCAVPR
Cytochrome P450 2C19, sequence (P33261 whole entry, canonical isoform): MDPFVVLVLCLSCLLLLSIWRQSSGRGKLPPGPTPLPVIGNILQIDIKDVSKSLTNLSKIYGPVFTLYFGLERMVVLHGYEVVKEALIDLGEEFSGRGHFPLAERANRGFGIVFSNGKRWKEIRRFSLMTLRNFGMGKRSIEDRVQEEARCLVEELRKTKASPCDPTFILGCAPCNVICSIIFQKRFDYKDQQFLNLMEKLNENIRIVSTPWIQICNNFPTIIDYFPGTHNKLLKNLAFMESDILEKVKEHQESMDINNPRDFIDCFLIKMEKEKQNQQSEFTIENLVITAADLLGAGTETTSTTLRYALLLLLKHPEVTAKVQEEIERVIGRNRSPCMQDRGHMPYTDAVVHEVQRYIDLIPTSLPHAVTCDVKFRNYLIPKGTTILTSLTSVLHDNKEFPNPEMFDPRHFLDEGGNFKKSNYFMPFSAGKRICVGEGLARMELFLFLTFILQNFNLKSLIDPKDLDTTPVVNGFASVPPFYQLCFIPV

## C[C@]12CC[C@@H]3c4ccc(O)c(O)c4CC[C@H]3[C@@H]1CCC2=O
Sulfotransferase 1E1
  Activity: Substrate
[1]
  Activity: Substrate

## Oc1ccc(-c2ccccc2)cc1
[1]
  Activity: Substrate

## Cc1ccc2cc3c(ccc4ccccc43)c3c2c1CC3 [3-METHYLCHOLANTHRENE]
Cytochrome P450 1A2 [2]
  Activity: Inducer

## CCc1c2c(nc3ccc(O)cc13)-c1cc3c(c(=O)n1C2)COC(=O)[C@]3(O)CC [7-ETHYL-10-HYDROXYCAMPTOTHECIN]
[3]
  Activity: Substrate
[1]
  Activity: Substrate
[4]
  Activity: Substrate

## CN(C)CCC=C1c2ccccc2CCc2ccccc21 [AMITRIPTYLINE]
[5]
  Activity: Substrate

## C[C@]12CC[C@@H](O)C[C@@H]1CC[C@@H]1[C@@H]2CC[C@]2(C)C(=O)CC[C@@H]12 [ANDROSTERONE]
[6]
  Activity: Substrate

## O=c1cc(-c2ccccc2)oc2ccc3ccccc3c12 [BETA-NAPHTHOFLAVONE]
Cytochrome P450 1A2 [2]
  Activity: Inducer

## CN/C(=N/CCSCc1nc[nH]c1C)NC#N [CIMETIDINE]
Cytochrome P450 1A2 [7]
  Activity: Inhibitor
Cytochrome P450 2D6
  Activity: Inhibitor

## COc1ccc2c3c1O[C@H]1[C@@H](O)C=C[C@H]4[C@@H](C2)N(C)CC[C@@]341 [CODEINE]
[6]
  Activity: Substrate

## CN(C)CCC=C1c2ccccc2C=Cc2ccccc21 [CYCLOBENZAPRINE]
[5]
  Activity: Substrate

## Nc1nnc(-c2cccc(Cl)c2Cl)c(N)n1 [LAMOTRIGINE]
[5]
  Activity: Substrate

## Cc1c(OCC(F)(F)F)ccnc1C[S+]([O-])c1nc2ccccc2[nH]1 (stereo unspecified) [LANSOPRAZOLE]
Cytochrome P450 2C19
  Activity: Substrate
Cytochrome P450 1A2 [2]
  Activity: Inducer

## COc1c(C)c2c(c(O)c1C/C=C(\C)CCC(=O)O)C(=O)OC2 [MYCOPHENOLIC ACID]
[1]
  Activity: Substrate
[8]
  Activity: Substrate
[9]
  Activity: Substrate

## CCCCCCCCOC(=O)c1cc(O)c(O)c(O)c1 [OCTYL_GALLATE]
[1]
  Activity: Substrate

## Cc1cc2c(s1)Nc1ccccc1N=C2N1CCN(C)CC1 [OLANZAPINE]
[5]
  Activity: Substrate

## Fc1ccc([C@@H]2CCNC[C@H]2COc2ccc3c(c2)OCO3)cc1 [PAROXETINE]
Cytochrome P450 2D6
  Activity: Inhibitor

## CN[C@H]1CC[C@@H](c2ccc(Cl)c(Cl)c2)c2ccccc21 [SERTRALINE]
Cytochrome P450 2D6
  Activity: Inhibitor

## CN(C/C=C/C#CC(C)(C)C)Cc1cccc2ccccc12 [TERBINAFINE]
Cytochrome P450 2D6
  Activity: Inhibitor

## CN1CCN(CCCN2c3ccccc3Sc3ccc(C(F)(F)F)cc32)CC1 [TRIFLUOPERAZINE]
[5]
  Activity: Substrate
